Assay results published in patent US20070225255A1, “Use of Mitochondrially Targeted Antioxidant in the Treatment of Liver Diseases and Epithelial Cancers” (priority 2004, published 2007).

Columns and labels:
hemoxygenase 1 (HO-1) = experiment: Western blot of hemoxygenase 1 in liver extracts of DDC intoxicated mice; format: in vivo, mouse; details: DDC 3 days, daily i.p. MitoQ in PBS/1% DMSO (112 nmol/kg), versus DDC intoxicated mice
Procedure: To evaluate hemoxygenase 1 (HO-1) protein expression know to be induced by oxidative stress (Suematsu M. and Ishimura Y., 2000, Hepatology, 31(1): 3-6) standard western blot analysis is performed using protein extracts derived from DDC intoxicated mice treated simultaneously for 3 days with MitoQ (diluted in 1% DMSO in PBS) or just vehicle itself (see protocols in Example 3).
Liver tissues are resuspended in ice-cold RIPA-buffer (50 mM Tris-HCl pH 7.4, 250 mM NaCl, 0.1% SDS, 1% deoxycholate, 1% NP-40) supplemented with 2 μg/ml leupeptin, 2 μg/ml pepstatin, 2 μg/ml aprotinin, 1 mM phenylmethylsulfonylfluoride (PMSF), and 2 mM dithiothreitol followed by homogenization through sonication (2 bursts of 5 seconds) on ice. After incubation for 20 minutes on ice, the lysates are cleared by two centrifugational steps in a microcentrifuge at 13 000 rpm for 15 minutes at 4° C. and the supernatants are collected. Protein concentrations are determined by the Bradford assay (Biorad) using bovine serum albumin as a standard. […] The intensities of the bands can be analysed densitometrically using ChemiImager 5500 software (Alpha Innotech) and each signal normalised to the intensity of the corresponding HO-2 (showing 7 fold reduction of HO-1 upon MitoQ treatment when compared to DDC intoxicated group of animals), or alternatively to β-actin.

[1] = test system: human cell lines intoxicated with DDC or BSO; experiment: ROS formation in cell lines intoxicated with DDC or BSO; format: cell-based; details: simultaneous treatment at concentrations corresponding to EC50
Description: Another simple set of experiments employing hepatoma cell lines (e.g. HepG2 or Hep3B), the SNU-398 hepatocellular carcinoma-derived cell line (ATCC No. CRL-2233, LGC Promochem, Germany), the HUH-7 human carcinoma-derived cell line (Japanese collection of Research Biosources JCRB 0403) or the Tib-73 mouse embryonic liver cell line (ATCC TIB 73=BNL CL2 derived from BAL/c mouse, MD, USA) allows measurement of ROS production in these cells upon DDC intoxication.
To determine ROS production in for example hepatoma cell lines a standard experimental protocol according to Example 8 is applied. Tested hepatoma cells are grown in 96-well plates in culture medium (DMEM supplemented with 10% FCS, Gibco) to 80% confluency, subsequently washed with HBSS and incubated in the dark with DHE (10-50 μM) for 10 minutes at 37° C. Cells are then washed twice with Hank's balanced salt solution (HBSS, Gibco) to remove excess dye. Fluorescence is monitored in a fluorescence microscope (Olympus, Hamburg, Germany).
Alternatively, the generation of ROS is measured by using the fluoroprobe 5-(and-6)-chloromethyl-2′,7′-dichlorodihydrofluorescein diacetate acetyl ester (CM-H2DCFDA, Molecular Probes, Goettingen, Germany) which is converted to fluorescent dichlorofluorescien (DCF; Djordjevic T. et al., 2004, Antioxidants & Redox Signaling, 6: 713-720). To determine DCF fluorescence in a microplate reader (Tecan, Crailsheim, Germany), cells (e.g. HepG2, Hep3B or SNU-398) are grown in 96-well plates to 80% confluency. […] After several washes with HBSS to remove excess dye, fluorescence is monitored by using 480 nm excitation and 540 nm emission wavelength. DCF fluorescence is standardized to the number of viable cells using the Alamar Blue test according to the manufacturer's instructions (Biosource, Nivelles, Belgium). […] The absorbance is then measured at the wavelength of 580 μm.

HepG2 cells = experiment: ROS production (DCF fluorescence) in HepG2 cells, basal and CoCl2 stimulated; format: cell-based, human
Procedure: Alternatively, the generation of ROS is measured by using the fluoroprobe 5-(and-6)-chloromethyl-2′,7′-dichlorodihydrofluorescein diacetate acetyl ester (CM-H2DCFDA, Molecular Probes, Goettingen, Germany) which is converted to fluorescent dichlorofluorescien (DCF; Djordjevic T. et al., 2004, Antioxidants & Redox Signaling, 6: 713-720). To determine DCF fluorescence in a microplate reader (Tecan, Crailsheim, Germany), cells (e.g. HepG2, Hep3B or SNU-398) are grown in 96-well plates to 80% confluency. […] After several washes with HBSS to remove excess dye, fluorescence is monitored by using 480 nm excitation and 540 nm emission wavelength. DCF fluorescence is standardized to the number of viable cells using the Alamar Blue test according to the manufacturer's instructions (Biosource, Nivelles, Belgium). […] The absorbance is then measured at the wavelength of […].
In another experiment HepG2 stimulated by 100 μM CoCl2 (Sigma) are used (Bel Aiba R. S. et al., 2004,. Biol Chem. 385:249-57). […] The fluorescence is measured in a plate-reader (Tecan Safire) after 0, 10, 20 and 30 minutes (Djordjevic T, et al., 2005, Free Radic Biol Med. 38:616-30).

HUH-7 cells = experiment: ROS production induced by Antimycin A, lucigenin chemiluminescence assay; format: cell-based, human; details: Antimycin A 0, 1 and 5 μM, MitoQ 0 to 1000 nmol, 3 hours at 37° C.
Procedure: HUH-7 cells are incubated in 6 well plates and stimulated with Antimycin A in concentration 0-25 μM (0, 1 and 5 μM) simultaneously with or without MitoQ in concentration range from 0 to 1000 nmol dissolved in DMEM (Gibco) for 3 hours at 37° C. The light reaction between superoxide and lucigenin is detected. X axis represents a concentration range of MitoQ [nM] whereas y axis the chemiluminescence signal expressed as average counts per minute [cpm] after normalization to cell number determined by cell counter.
Another approach allows measurement of the ROS production induced by antimycin A or rotenone by using lucigenin chemiluminescence assay (experimental set up as in Example 9) in e.g. HUH-7 or Tib-73. HUH-7 cells are incubated in 6 well plates and stimulated by using antimycin A in concentration 0-25 μM (preferably 0, 1 and 5 μM) simultaneously with or without MitoQ (or MitoS) in concentration range from 0 to 1000 nmol dissolved in DMEM (Gibco) for 3 hours at 37° C. […] The light reaction between superoxide and lucigenin is detected using a chemiluminescence reader (Lumistar, BMG laboratories, Germany). The chemiluminescence signal is expressed as average counts per minute and normalized to cell number as determined by cell counter (Casy Technology Instrument, Schärfe-System, Germany).

[2] = fed in drinking water for 3 to 7 days, 500 μM or 1 mM (MitoVit E 500 μM); cited from earlier work

Substance: MitoQ
- reduction of HO-1 protein expression normalised to HO-2 (hemoxygenase 1 (HO-1)): 7 fold
- ROS formation [1]: significant reduction in ROS formation
- CoCl2-stimulated ROS production (relative DCF fluorescence) (HepG2 cells; HepG2 cells, 100 μM CoCl2, 5 μM MitoQ): significantly decrease
- basal ROS production (relative DCF fluorescence) (HepG2 cells; unstimulated HepG2 cells, 5 μM MitoQ): significantly decrease
- ROS formation (lucigenin chemiluminescence) (HUH-7 cells): significant reduction in ROS formation
- gross signs of toxicity [2]: without any gross signs of toxicity
